According to the NIST ThermoML archive (doi:10.1021/je060271a):
Numbers after ± are expanded uncertainties.

Settings: 343.15 K, Liquid, Vibrating tube method

CCCCC(=O)OCC(COC(=O)CCCC)(COC(=O)CCCC)COC(=O)CCCC [pentaerythritol tetrapentanoate]
Settings	mass density [kg/m3]
5413.1 kPa	982.8 ± 1.2
5435 kPa	982.7 ± 1.2
5461.9 kPa	982.8 ± 1.2
5505.6 kPa	982.8 ± 1.2
5528.3 kPa	982.7 ± 1.2
5555.3 kPa	982.9 ± 1.2
5578.3 kPa	982.9 ± 1.2
5601.1 kPa	982.8 ± 1.2
5652.8 kPa	983 ± 1.2
6775.7 kPa	983.7 ± 1.2
6868.5 kPa	983.8 ± 1.2
7157.9 kPa	984.1 ± 1.2
7189.4 kPa	984.1 ± 1.2
7222 kPa	984.1 ± 1.2
7362.2 kPa	984.3 ± 1.2
7507.8 kPa	984.3 ± 1.2
7543.3 kPa	984.3 ± 1.2
7586.1 kPa	984.4 ± 1.2
7622 kPa	984.5 ± 1.2
7658.5 kPa	984.4 ± 1.2
7695.9 kPa	984.5 ± 1.2
7740.8 kPa	984.5 ± 1.2
7779.3 kPa	984.5 ± 1.2
7819 kPa	984.5 ± 1.2
7858.9 kPa	984.6 ± 1.2
7901.3 kPa	984.7 ± 1.2
7933.4 kPa	984.7 ± 1.2
7965.2 kPa	984.7 ± 1.2
7997.4 kPa	984.8 ± 1.2
8035.4 kPa	984.7 ± 1.2
8067.7 kPa	984.8 ± 1.2
8100.4 kPa	984.6 ± 1.2
8139.1 kPa	984.8 ± 1.2
8172.2 kPa	984.9 ± 1.2
8205.9 kPa	984.8 ± 1.2
8240 kPa	984.8 ± 1.2
8280.4 kPa	985 ± 1.2
8314.6 kPa	984.8 ± 1.2
8349.6 kPa	985 ± 1.2
8390.6 kPa	985.1 ± 1.2
8425.6 kPa	985 ± 1.2
8461.4 kPa	985 ± 1.2
8504.7 kPa	985.1 ± 1.2
8540.9 kPa	985 ± 1.2
8577.6 kPa	985.2 ± 1.2
8620.4 kPa	985.2 ± 1.2
8653.7 kPa	985.2 ± 1.2
8686.4 kPa	985.2 ± 1.2
8725.9 kPa	985.3 ± 1.2
8759 kPa	985.2 ± 1.2
8793.5 kPa	985.3 ± 1.2
8834.4 kPa	985.3 ± 1.2
8868.3 kPa	985.2 ± 1.2
8902.8 kPa	985.3 ± 1.2
8937.8 kPa	985.4 ± 1.2
8979.2 kPa	985.4 ± 1.2
9014.2 kPa	985.4 ± 1.2
9057.6 kPa	985.5 ± 1.2
9093 kPa	985.5 ± 1.2
9128.9 kPa	985.5 ± 1.2
9165.6 kPa	985.6 ± 1.2
9210.7 kPa	985.6 ± 1.2
9247.8 kPa	985.6 ± 1.2
9284.8 kPa	985.6 ± 1.2
9330.2 kPa	985.6 ± 1.2
9369.1 kPa	985.6 ± 1.2
9408.2 kPa	985.8 ± 1.2
9447.9 kPa	985.6 ± 1.2
9495.3 kPa	985.9 ± 1.2
9536.5 kPa	985.8 ± 1.2
9579.2 kPa	985.9 ± 1.2
9627.1 kPa	985.8 ± 1.2
9659.1 kPa	985.9 ± 1.2
9689.8 kPa	986 ± 1.2
9720.2 kPa	986 ± 1.2
9749.7 kPa	986 ± 1.2
9785.3 kPa	986 ± 1.2
9815.5 kPa	986.1 ± 1.2
9845.4 kPa	986.1 ± 1.2
9881.3 kPa	986.2 ± 1.2
9911.4 kPa	986.2 ± 1.2
9942.4 kPa	986.2 ± 1.2
9979.5 kPa	986.2 ± 1.2
10011 kPa	986.2 ± 1.2
10043 kPa	986.1 ± 1.2
10082 kPa	986.4 ± 1.2
10117 kPa	986.1 ± 1.2
10149 kPa	986.3 ± 1.2
10181 kPa	986.3 ± 1.2
10213 kPa	986.3 ± 1.2
10252 kPa	986.3 ± 1.2
10284 kPa	986.3 ± 1.2
10318 kPa	986.4 ± 1.2
10358 kPa	986.4 ± 1.2
10391 kPa	986.4 ± 1.2
10425 kPa	986.5 ± 1.2
10465 kPa	986.6 ± 1.2
10500 kPa	986.5 ± 1.2
10535 kPa	986.6 ± 1.2
10577 kPa	986.5 ± 1.2
10612 kPa	986.6 ± 1.2
10647 kPa	986.6 ± 1.2
10690 kPa	986.5 ± 1.2
10726 kPa	986.8 ± 1.2
10762 kPa	986.7 ± 1.2
10806 kPa	986.8 ± 1.2
10842 kPa	986.8 ± 1.2
10879 kPa	986.8 ± 1.2
10923 kPa	986.9 ± 1.2
10960 kPa	986.9 ± 1.2
10999 kPa	986.9 ± 1.2
11045 kPa	986.9 ± 1.2
11084 kPa	987 ± 1.2
11122 kPa	987.1 ± 1.2
11162 kPa	986.9 ± 1.2
11209 kPa	987 ± 1.2
11248 kPa	987.2 ± 1.2
11296 kPa	987.1 ± 1.2
11336 kPa	987.2 ± 1.2
11377 kPa	987.2 ± 1.2
11417 kPa	987.2 ± 1.2
11467 kPa	987.3 ± 1.2
11508 kPa	987.3 ± 1.2
11551 kPa	987.4 ± 1.2
11602 kPa	987.3 ± 1.2
11645 kPa	987.3 ± 1.2
11689 kPa	987.4 ± 1.2
11740 kPa	987.4 ± 1.2
11784 kPa	987.5 ± 1.2
11828 kPa	987.4 ± 1.2
11881 kPa	987.6 ± 1.2
11926 kPa	987.6 ± 1.2
11972 kPa	987.7 ± 1.2
12028 kPa	987.6 ± 1.2
12076 kPa	987.7 ± 1.2
12126 kPa	987.7 ± 1.2
12187 kPa	987.8 ± 1.2
12237 kPa	987.9 ± 1.2
12270 kPa	988 ± 1.2
12298 kPa	987.8 ± 1.2
12322 kPa	987.9 ± 1.2
12346 kPa	987.8 ± 1.2
12374 kPa	988 ± 1.2
12398 kPa	987.9 ± 1.2
12423 kPa	988 ± 1.2
12452 kPa	987.9 ± 1.2
12476 kPa	988.1 ± 1.2
12501 kPa	988.1 ± 1.2
12530 kPa	988 ± 1.2
12555 kPa	988 ± 1.2
12580 kPa	988 ± 1.2
12610 kPa	988 ± 1.2
12636 kPa	988 ± 1.2
12660 kPa	988.1 ± 1.2
12691 kPa	988.1 ± 1.2
12717 kPa	988.2 ± 1.2
12742 kPa	988.1 ± 1.2
12773 kPa	988.2 ± 1.2
12799 kPa	988.2 ± 1.2
12824 kPa	988.3 ± 1.2
12856 kPa	988.3 ± 1.2
